MIC data for six compounds are collected here from ChEMBL document CHEMBL4402537, “Recent development of membrane-active molecules as antibacterial agents” (2019).

Molecules are shown by their SMILES. Values after ≈ are worked out from the molar mass of the structure shown.

What all share (assay type): functional
Test [1] deals with Staphylococcus aureus. In words: Antibacterial activity against Staphylococcus aureus after 10 hrs by broth microdilution assay.
A further test has as its system Escherichia coli. In words: Antibacterial activity against Escherichia coli after 10 hrs by broth microdilution assay.
The subject of test [2] is Staphylococcus aureus. The test can be described thus: Antibacterial activity against methicillin resistant Staphylococcus aureus.
In test [3] the test system is Staphylococcus aureus. The test can be described thus: Antibacterial activity against methicillin resistant Staphylococcus aureus clinical isolate.
The test system of another test is Acinetobacter baumannii. In words: Antibacterial activity against Acinetobacter baumannii.
A further test concerns Klebsiella pneumoniae. In words: Antibacterial activity against Klebsiella pneumoniae.
The test system of test [4] is Staphylococcus aureus. The test can be described thus: Antibacterial activity against methicillin resistant Staphylococcus aureus DB57964/04 after 18 to 20 hrs by CLSI based direct colony suspension method.
A further test concerns Enterococcus faecalis. In words: Antibacterial activity against Enterococcus faecalis ATCC 29212 after 18 to 20 hrs by CLSI based direct colony suspension method.
In test [5] the test system is Staphylococcus aureus. The test can be described thus: Antibacterial activity against methicillin resistant Staphylococcus aureus DM21455 after 18 to 20 hrs by CLSI based direct colony suspension method.
The subject of a further test is Bacillus cereus. In words: Antibacterial activity against Bacillus cereus ATCC 11778 after 18 to 20 hrs by CLSI based direct colony suspension method.
The subject of test [6] is Staphylococcus aureus. In words: Antibacterial activity against Staphylococcus aureus ATCC 29213 after 18 to 20 hrs by CLSI based direct colony suspension method.
Test [7] has as its system Staphylococcus aureus. The test can be described thus: Antibacterial activity against methicillin resistant Staphylococcus aureus DM09808R after 18 to 20 hrs by CLSI based direct colony suspension method.

Consider `CCCCCCCCCCCCNC(=O)C[N+](C)(C)C`, for which the figures for the minimal inhibitory concentration (MIC) in the test on Staphylococcus aureus [1] and in the test with Escherichia coli were 43 µM and 35 µM, respectively.
`CCCCCCCCCCCCNC(=O)C[N+](C)(C)CCCCCC[N+](C)(C)CC(=O)NCCCCCCCCCCCC`: the MIC in the test on Staphylococcus aureus [1] amounted to 10 µM; in the test with Escherichia coli, 13 µM.
For `CCCCCCCCCCCCCC(=O)N(CCCNC(=O)[C@H](N)CCCCN)CCCNC(=O)[C@H](N)CCCCN.O=C(O)C(F)(F)F.O=C(O)C(F)(F)F.O=C(O)C(F)(F)F.O=C(O)C(F)(F)F`, in the test with Staphylococcus aureus [2], the minimum inhibitory concentration (MIC) was 3.1 to 6.3 µg/mL.
In the case of `CCCCCCN(Cc1ccc(-c2ccc(CN(CCCCCC)C(=O)[C@@H](N)CCCCN)cc2)cc1)C(=O)[C@@H](N)CCCCN.O=C(O)C(F)(F)F.O=C(O)C(F)(F)F.O=C(O)C(F)(F)F.O=C(O)C(F)(F)F`, the figures for the MIC against Staphylococcus aureus [2] and in the test on Staphylococcus aureus [3] were 3.1 µg/mL and 6.2 µg/mL, respectively.
Take `CCCCCCCC(=O)N(CCCNC(=O)[C@@H](CCCCN)NC(=O)[C@H](N)CCCCN)CCCNC(=O)[C@@H](CCCCN)NC(=O)[C@H](N)CCCCN.O=C(O)C(F)(F)F.O=C(O)C(F)(F)F.O=C(O)C(F)(F)F.O=C(O)C(F)(F)F.O=C(O)C(F)(F)F.O=C(O)C(F)(F)F`: the MIC against Acinetobacter baumannii, in the test with Klebsiella pneumoniae and against Staphylococcus aureus [2] was 6.3 to 12.5 µg/mL throughout.
`COc1c(O)cc2oc3cc(O)c(CC=C(C)C)c(O)c3c(=O)c2c1CC=C(C)C` [MANGOSTIN]: the MIC against Staphylococcus aureus [4], in the test with Enterococcus faecalis, in the test with Staphylococcus aureus [5], in the test on Bacillus cereus, with Staphylococcus aureus [6] and against Staphylococcus aureus [7] was 0.78 to 1.56 µg/mL (≈ 1.9 to 3.8 µM) throughout.
